{"source": "paper PMC7356390", "about": "“Dehydrozingerone, a Curcumin Analog, as a Potential Anti-Prostate Cancer Inhibitor In Vitro and In Vivo” (Molecules, 2020)", "key": {"PLS10 cells [1]": {"tested_on": "PLS10 cells", "test": "Cell cycle analysis (Guava cycle assay)", "assay_type": "cell-based, rat", "details": "48 h", "description": "Cells were treated with Cur (0–20 μM) and DZG (0–200 μM) for 48 h. Cells were harvested for analysis of the cell cycle distribution by the Guava cycle (a,b), while cyclin D1 expression was determined by Western blot analysis (c,d). The level of protein expression was quantified by IMAGE J software. Data are presented as mean ± S.D. of three independent experiments. * p < 0.05 and ** p < 0.01 vs. control (one-way ANOVA, Dunnett’s multiple comparisons test, tested groups vs. control group). TEXT PRINTED IN THE PICTURE: (a) Cur: G1: 39.76±7.07 (Cur (μM): 5); S: 15.20±2.22 (Cur (μM): 5); G2/M: 45.02±8.26 (Cur (μM): 5); G1: 43.45±4.60 (Cur (μM): 10); S: 15.45±1.20 (Cur (μM): 10); G2/M: 40.90±6.08 (Cur (μM): 10); G1: 41.00±2.40 (Cur (μM): 15); S: 16.35±2.05 (Cur (μM): 15); G2/M: 42.60±4.67 (Cur (μM): 15); G1: 46.28±4.32 (Cur (μM): 20); S: 13.68±2.05 (Cur (μM): 20); G2/M: 43.10±5.50 (Cur (μM): 20) | (b) DZG: G1: 36.75±0.35 (DZG (μM): 50); S: 16.30±0.71 (DZG (μM): 50); G2/M: 46.95±0.35 (DZG (μM): 50); G1: 36.73±3.41 (DZG (μM): 100); S: 17.17±1.29 (DZG (μM): 100); G2/M: 46.10±2.78 (DZG (μM): 100); G1: 42.88±7.45 (DZG (μM): 150); S: 17.90±1.82 (DZG (μM): 150); G2/M: 39.25±6.13 (DZG (μM): 150); G1: 52.95±7.52 (DZG (μM): 200); S: 16.23±1.02 (DZG (μM): 200); G2/M: 31.00±6.67 (DZG (μM): 200) DOUBTS OF THE COPYIST ABOUT THIS PICTURE: Control columns (panel a: G1: 38.86±4.93, S: 14.52±1.90, G2/M: 46.60±5.74; panel b: G1: 35.93±2.45, S: 15.90±2.11, G2/M: 48.18±2.51) are printed but left out of lines, as Control is not a substance\nThe PLS10 cells (1.0 × 10^5 cells per well) were plated into a 6-well plate overnight. Then, cells were treated with increasing concentrations of Cur (0–20 µM) or DZG (0–200 µM) in the present of 0.5% DMSO (vehicle control) for the next 48 h. Cell morphology was investigated and photographed under a microscope. The cell cycle distribution was determined using a Guava cycle assay (Guava Technologies, Hayward, CA, USA) according to the manufacturer’s protocols. Briefly, the cells were removed by trypsinization, and the cell suspension was fixed in ice-cold 70% methanol at −20°C. After that, the methanol was removed, and the cells were washed with PBS before being stained with a Guava cycle reagent for 30 min. Cell cycle distribution was determined on a Guava PCA Instrument using Guava®ViacountTM Software (Merck Ltd., Darmstadt, Germany)."}, "PLS10 cells [2]": {"tested_on": "PLS10 cells", "test": "WST-1 cell viability assay", "assay_type": "cell-based", "details": "Rattus norvegicus; 48 h, WST-1 assay, mean ± S.D.; read-out: IC50, cell proliferation of PLS10 cells", "description": "Figure 2 Cytotoxicity of Cur (a) and DZG (b) on PLS10 cells. Cells were treated with Cur (0–50 μM) or DZG (0–200 µM) and incubated for 48 h. Cell viability was measured by WST-1 assay. Data are represented as mean ± S.D. of three independent experiments. * p < 0.05, ** p < 0.01 and *** p < 0.001 vs. control (one-way ANOVA, Dunnett’s multiple comparisons test, tested groups vs. control group). PLS10 cells (2.0 × 10^3 cells per well) were plated in a 96-well plate for 24 h. Cur and DZG were dissolved in DMSO and diluted to the final concentration in the culture medium. After that, the culture medium containing Cur (0–50 µM) or DZG (0–200 µM) in 0.5% DMSO (vehicle control) were added into the cells. The cells were incubated in 5% CO2 at 37°C for a further 48 h, and cell viability was determined using the WST-1 colorimetric assay (Roche Diagnostics, Mannheim, Germany). In each experiment, determinations were carried out in triplicate."}}}
{"smiles": "COc1cc(/C=C/C(=O)CC(=O)/C=C/c2ccc(O)c(OC)c2)ccc1O", "note": "[Cur, Curcumin]", "values": [{"measurement": "G1 phase cell population", "setting": "PLS10 cells [1]; Cur 20 µM", "result": 46, "unit": "%"}, {"measurement": "IC50", "setting": "PLS10 cells [2]", "result": "20.3 ± 0.58", "unit": "µM"}]}
{"smiles": "COc1cc(/C=C/C(C)=O)ccc1O", "note": "[DZG, (E)-4-(4-hydroxy-3-methoxyphenyl)-but-3-en-2-one]", "values": [{"measurement": "G1 phase cell population", "setting": "PLS10 cells [1]; DZG 150 µM", "result": 43, "unit": "%"}, {"measurement": "G2/M phase cell population", "setting": "PLS10 cells [1]; DZG 150 µM", "result": 39, "unit": "%"}, {"measurement": "G1 phase cell population", "setting": "PLS10 cells [1]; DZG 200 µM", "result": 53, "unit": "%"}, {"measurement": "G2/M phase cell population", "setting": "PLS10 cells [1]; DZG 200 µM", "result": 31, "unit": "%"}, {"measurement": "IC50", "setting": "PLS10 cells [2]", "result": "153 ± 11.8", "unit": "µM"}]}
